Assay results taken from US11350632B2, “Methods, compositions and systems for killing arthropods” (Imerys USA, Inc., priority 2016, dated 2022).

Experiments:
Experiment in all cases: Field trial weekly bioassay on pre-treated substrate
Type in all cases: in vivo
Aedes aegypti = tested on: Aedes aegypti; set-up: mortality found (summary of field trial): concentration or dose not given beside the values
Method: (§1) During a field trial in New Orleans, bioassays were performed with (1) the expanded, milled ultrafine perlite of Example 1, (2) a lambda-cyhalothrin insecticide (BASF) as positive control, and (3) a negative control (water only). Six samples of each insecticide (1) and (2) and the control (3) were tested against mosquito species Aedes aegypti (dengue and zika vector), Aedes albopictus (tiger mosquito), and Culex quinquefasciatus (nuisance mosquito) by spraying wood chips stored under houses using a STIHL SR 200 backpack sprayer (18 houses total). The houses were selected based on housing structure (raised house), backyard vegetation (green and lush), and location (suburban neighborhood).
(§2) The lambda cyhalothrin (industry standard insecticide) was prepared according to manufacturer instructions. Lambda cyhalothrin insecticide was diluted with water for spray application. First the application tank was filled with one-half to three-fourths volume of water. The pH of the water was controlled between 5 and 7 using a buffering agent if necessary to adjust the pH. Next, lambda cyhalothrin insecticide was slowly added to the applicator tank water with maximum agitation. Finally, the tank was filled to the desired volume with continuous agitation while applying the spray. To prepare the perlite insecticide spraying solutions, two-thirds of a gallon of water, 0.32 ounces of non-ionic surfactant (Ninex MT615), and 2 lbs expanded, milled ultrafine perlite were thoroughly blended together in a spray tank. Another one-third gallon of water was then added for a total 1 gallon of spray solution containing 20% of ultrafine perlite mechanical insecticide, 79% of water and 1% of Ninex MT615 as dispersant. The ultrafine perlite solution was mixed directly prior to spraying.
(§3) The ultrafine perlite insecticide, the positive control (lambda cyhalothrin) and the negative control (water) were sprayed directly under the raised houses and porches (which included eaves if reachable) and under vegetation with an applicator. Pre-treated substrates were also prepared for each location by applying the corresponding insecticide or control to a piece of pine. The target coverage was 5-8 ounces per 100 ft^2, with an average coverage of about 10 g/m^2 to 15 g/m^2.
(§4) Adult mosquitos for each species were introduced to each location, and were identified and counted two weeks prior to the start of the bioassays. Weekly bioassays were performed to test the efficacy of the insecticides over time by collecting a pre-treated substrate from each site and placing ˜10 female mosquitos of the corresponding species into a labeled bioassay cup with the substrate. The cup was then placed in a growth chamber/counter (depending on temperature) for 1 hour and then 24 hours with sugar solution. The number of dead and live mosquitos was recorded and compared to determine the percent mortality. Results are shown in Tables 8-10, in which 100% indicates complete mortality of mosquitoes and 0% indicates zero mortality (no mosquito deaths).

Culex quinquefasciatus = tested on: Culex quinquefasciatus; set-up: concentration or dose not given beside the values
Method: as §1, §2, §3, §4

Aedes albopictus = tested on: Aedes albopictus; set-up: concentration or dose not given beside the values
Method: as §1, §2, §3, §4

[1] = Week 0, ~10 female mosquitos with pre-treated substrate
[2] = week not stated, each mosquito species

## CC1(C)[C@H](C(=O)O[C@H](C#N)c2cccc(Oc3ccccc3)c2)[C@@H]1/C=C(\Cl)C(F)(F)F (racemic) [Lambda cyhalothrin, lambda-cyhalothrin]
Aedes aegypti; [1]
  Mortality (%) of Andes aegypti: 0%
Aedes aegypti; Week 1
  Mortality (%) of Andes aegypti: 0%
Aedes aegypti; Week 2
  Mortality (%) of Andes aegypti: 100%
Aedes aegypti; Week 3
  Mortality (%) of Andes aegypti: 100%
Aedes aegypti; Week 4
  Mortality (%) of Andes aegypti: 100%
Aedes aegypti; Week 5 (heavy rainfall)
  Mortality (%) of Andes aegypti: 100%
Aedes aegypti; Week 6
  Mortality (%) of Andes aegypti: 100%
Aedes aegypti; Week 7
  Mortality (%) of Andes aegypti: 100%
Aedes aegypti; Week 8
  Mortality (%) of Andes aegypti: 100%
Aedes aegypti; [2]
  mortality found (summary of field trial): 100%
Culex quinquefasciatus; [1]
  Mortality (%) of Culex quinquefasciatus: 0%
Culex quinquefasciatus; Week 1
  Mortality (%) of Culex quinquefasciatus: 0%
Culex quinquefasciatus; Week 2
  Mortality (%) of Culex quinquefasciatus: 100%
Culex quinquefasciatus; Week 3
  Mortality (%) of Culex quinquefasciatus: 100%
Culex quinquefasciatus; Week 4
  Mortality (%) of Culex quinquefasciatus: 97%
Culex quinquefasciatus; Week 5 (heavy rainfall)
  Mortality (%) of Culex quinquefasciatus: 100%
Culex quinquefasciatus; Week 6
  Mortality (%) of Culex quinquefasciatus: 93%
Culex quinquefasciatus; Week 7
  Mortality (%) of Culex quinquefasciatus: 100%
Culex quinquefasciatus; Week 8
  Mortality (%) of Culex quinquefasciatus: 100%
Culex quinquefasciatus; [2]
  mortality found (summary of field trial): 100%
Aedes albopictus; [1]
  Mortality (%) of Andes albopictus: 0%
Aedes albopictus; Week 1
  Mortality (%) of Andes albopictus: 0%
Aedes albopictus; Week 2
  Mortality (%) of Andes albopictus: 100%
Aedes albopictus; Week 3
  Mortality (%) of Andes albopictus: 100%
Aedes albopictus; Week 4
  Mortality (%) of Andes albopictus: 100%
Aedes albopictus; Week 5 (heavy rainfall)
  Mortality (%) of Andes albopictus: 100%
Aedes albopictus; Week 6
  Mortality (%) of Andes albopictus: 100%
Aedes albopictus; Week 7
  Mortality (%) of Andes albopictus: 100%
Aedes albopictus; Week 8
  Mortality (%) of Andes albopictus: 100%
Aedes albopictus; [2]
  mortality found (summary of field trial): 100%
